Data taken from patent US20260297060A1, “COMPOUNDS FOR THE DEGRADATION OF MUTANT BRAF” (C4 THERAPEUTICS, INC., priority 2023, published 2026).

Molecular target: T1, human bile salt export pump (BSEP) efflux transporter (Homo sapiens, UniProt O95342)
T1 construct: purchased SOLVO Biotechnology Charles River Laboratories, Szeged, Hungary; host or cells: HEK293 (inside out membrane vesicles)
Assay: BSEP Vesicular Transport Inhibition Assay (IC50 determination)
Assay type: biochemical
Settings: human BSEP (HEK293) vesicles; taurocholate 0.2 μM; 4 mM Mg-ATP; 10 concentrations, 1 replicate; in nM
Summary of the method: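 Inside-out membrane vesicles from HEK293 cells expressing human BSEP were incubated with taurocholate probe substrate and compound (10 concentrations, single replicate) with 4 mM Mg-ATP, or 4 mM AMP for background, for 5 min at 37 °C. Vesicle-trapped substrate was quantified by liquid scintillation counting after filtration.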

T1 sequence (O95342 whole entry): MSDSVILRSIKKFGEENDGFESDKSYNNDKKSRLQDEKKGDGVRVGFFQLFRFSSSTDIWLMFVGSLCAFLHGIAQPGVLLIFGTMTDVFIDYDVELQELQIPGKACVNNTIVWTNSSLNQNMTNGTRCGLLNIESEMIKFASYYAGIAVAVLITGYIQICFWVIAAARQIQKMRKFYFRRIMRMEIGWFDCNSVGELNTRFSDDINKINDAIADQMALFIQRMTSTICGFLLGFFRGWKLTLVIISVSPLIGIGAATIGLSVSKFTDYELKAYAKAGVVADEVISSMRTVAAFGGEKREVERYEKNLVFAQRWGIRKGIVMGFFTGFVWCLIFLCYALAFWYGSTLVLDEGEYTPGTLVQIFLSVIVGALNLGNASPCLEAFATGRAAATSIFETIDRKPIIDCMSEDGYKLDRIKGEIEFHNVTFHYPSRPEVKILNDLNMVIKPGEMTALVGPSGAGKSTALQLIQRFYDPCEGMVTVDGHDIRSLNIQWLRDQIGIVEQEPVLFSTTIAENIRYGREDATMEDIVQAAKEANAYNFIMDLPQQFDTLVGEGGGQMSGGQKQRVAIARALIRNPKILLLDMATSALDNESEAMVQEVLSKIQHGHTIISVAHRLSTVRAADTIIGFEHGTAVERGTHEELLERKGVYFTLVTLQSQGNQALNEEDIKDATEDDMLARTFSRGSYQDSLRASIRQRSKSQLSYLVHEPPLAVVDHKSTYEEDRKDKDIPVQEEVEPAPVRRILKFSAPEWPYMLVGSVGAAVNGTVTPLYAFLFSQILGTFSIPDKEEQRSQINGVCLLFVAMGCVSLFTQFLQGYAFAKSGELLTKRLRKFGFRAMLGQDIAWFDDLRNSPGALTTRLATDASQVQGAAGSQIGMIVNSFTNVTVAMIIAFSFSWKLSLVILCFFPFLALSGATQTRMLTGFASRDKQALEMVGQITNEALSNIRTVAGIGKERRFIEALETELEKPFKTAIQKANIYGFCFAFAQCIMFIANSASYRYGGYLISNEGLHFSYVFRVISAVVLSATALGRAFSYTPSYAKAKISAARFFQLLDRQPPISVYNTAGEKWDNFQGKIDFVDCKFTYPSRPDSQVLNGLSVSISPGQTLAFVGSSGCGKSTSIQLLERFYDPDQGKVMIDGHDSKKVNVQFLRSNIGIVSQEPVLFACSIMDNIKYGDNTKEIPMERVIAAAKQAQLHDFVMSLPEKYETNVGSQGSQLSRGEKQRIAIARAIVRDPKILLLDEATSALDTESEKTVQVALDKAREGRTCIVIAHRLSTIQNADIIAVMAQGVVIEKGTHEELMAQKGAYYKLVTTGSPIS

| SMILES | BSEP Inhibition/IC50 |
| --- | --- |
| CO[C@@H]1CCN(S(=O)(=O)Nc2ccc(F)c(Oc3ccc4ncn(C5CC6(CCN(C7CC8(C7)CN(c7cc9c(cc7F)c(N7CCC(=O)NC7=O)nn9C)C8)CC6)C5)c(=O)c4c3)c2C#N)C1 (stereo partly drawn) [Compound 269, (3R)-N-[2-cyano-3-[3-[7-[2-[3-(2,4-dioxohexahydropyrimidin-1-yl)-5-fluoro-1-methyl-indazol-6-yl]-2-azaspiro[3.3]heptan-6-yl]-7-azaspiro[3.5]nonan-2-yl]-4-oxo-quinazolin-6-yl]oxy-4-fluoro-phenyl]-3-methoxy-pyrrolidine-1-sulfonamide] | >40000 |
| COC1CN(S(=O)(=O)Nc2ccc(F)c(Oc3ccc4ncn(C5CC6(CCN(C7CC8(C7)CN(c7cc9c(cc7F)c(N7CCC(=O)NC7=O)nn9C)C8)CC6)C5)c(=O)c4c3)c2C#N)C1 (centres unmarked) [Compound 280, N-[2-cyano-3-[3-[7-[2-[3-(2,4-dioxohexahydropyrimidin-1-yl)-5-fluoro-1-methyl-indazol-6-yl]-2-azaspiro[3.3]heptan-6-yl]-7-azaspiro[3.5]nonan-2-yl]-4-oxo-quinazolin-6-yl]oxy-4-fluoro-phenyl]-3-methoxy-azetidine-1-sulfonamide] | 26550 |
